PMC3981761, “A New Assay for Determining Ganglioside Sialyltransferase Activities Lactosylceramide-2,3-Sialyltransferase (SAT I) and Monosialylganglioside-2,3-Sialyltransferase (SAT IV)” (PLoS ONE, 2014)

Test system: T1, recombinant α2,3-(O)-sialyltransferase (EC 2.4.99.4), rat liver
T1 construct: gene St3gal2; recombinant commercial enzyme (EMD Bioscience), originating from rat liver
Test: HPLC with fluorescence detection of BODIPY-GD1a formed
Assay type: biochemical
Conditions: BODIPY-GM1 constant at 13 μM, pH 6, Mes, Triton, 37°C, 1 h; donor substrate

Km: 23.4 ± 0.1 µM
SMILES: CC(=O)N[C@H]1[C@H]([C@H](O)[C@H](O)CO)O[C@](OP(=O)(O)OC[C@H]2O[C@@H](n3ccc(N)nc3=O)[C@H](O)[C@@H]2O)(C(=O)O)C[C@@H]1O [CMP-NeuAc]
